Key:
HOP62 [1] = conditions: HOP62 transfected with Gli1 (efficiency approximately 25%) compared with HOP62 expressing an insertless expression vector
Text: Results from DTP analysis of the NCI-60 screen were independently validated with each cell line to determine which NSCLC cell lines required Hedgehog activity to proliferate.

UO-31 = assay: NCI-60 panel screen, growth inhibition; format: cell-based, human; conditions: Renal
Text: (§1) The NCI-60 panel of cell lines includes cells derived from melanoma, leukemia, and cancers of the lung, central nervous system, kidney, ovary, colon, breast and prostate. Advantageously, the NCI-60 panel has been screened with a plurality of compounds with the drug concentration resulting in 50% growth inhibition (GI50 determined for each cell line, so that a distinct “fingerprint” signature has been created for each small-molecule tested. Further, DNA microarray analyses have been performed on the NCI-60 panel, allowing for gene expression profile comparisons between drug-sensitive cell lines and drug-insensitive cell lines in response to a particular agent.
(§2) Results from the NCI-60 panel screen highlighted the important role that the Hedgehog pathway plays in breast and prostate cancer (Table 1). […] These findings underscore the broad importance of Hedgehog signaling in carcinogenesis.

MOLT-4 = assay: NCI-60 panel screen, growth inhibition; format: cell-based, human; conditions: Leukemia
Text: as §1, §2

SNB-19 = assay: NCI-60 panel screen, growth inhibition; format: cell-based, human; conditions: Central Nervous System
Text: as §1, §2

RPMI-8226 = assay: NCI-60 panel screen, growth inhibition; format: cell-based, human; conditions: Leukemia
Text: as §1, §2

ACHN = assay: NCI-60 panel screen, growth inhibition; format: cell-based, human; conditions: Renal
Text: as §1, §2

DU-145 = assay: NCI-60 panel screen, growth inhibition; format: cell-based, human; conditions: Prostate
Text: as §1, §2

HT29 = assay: NCI-60 panel screen, growth inhibition; format: cell-based, human; conditions: Colon
Text: as §1, §2

TK-10 = assay: NCI-60 panel screen, growth inhibition; format: cell-based, human; conditions: Renal
Text: as §1, §2

NCI-H322M = assay: NCI-60 panel screen, growth inhibition; format: cell-based, human; conditions: NSCLC
Text: as §1, §2

MDA MB-435 = assay: NCI-60 panel screen, growth inhibition; format: cell-based, human; conditions: Breast
Text: as §1, §2

HL-60 = assay: NCI-60 panel screen, growth inhibition; format: cell-based, human; conditions: Leukemia
Text: as §1, §2

SK-MEL-2 = assay: NCI-60 panel screen, growth inhibition; format: cell-based, human; conditions: Melanoma
Text: as §1, §2

NCI-H226 = assay: NCI-60 panel screen, growth inhibition; format: cell-based, human; conditions: NSCLC
Text: as §1, §2

MCF7 = assay: NCI-60 panel screen, growth inhibition; format: cell-based, human; conditions: Breast
Text: as §1, §2

786-0 = assay: NCI-60 panel screen, growth inhibition; format: cell-based, human; conditions: Renal
Text: as §1, §2

HOP62 [2] = assay: NCI-60 panel screen, growth inhibition; format: cell-based, human; conditions: NSCLC
Text: as §1, §2

SW-620 = assay: NCI-60 panel screen, growth inhibition; format: cell-based, human; conditions: Colon
Text: as §1, §2

NCI-H522 = assay: NCI-60 panel screen, growth inhibition; format: cell-based, human; conditions: NSCLC
Text: as §1, §2

RXF 393 = assay: NCI-60 panel screen, growth inhibition; format: cell-based, human; conditions: Renal
Text: as §1, §2

HS 578T = assay: NCI-60 panel screen, growth inhibition; format: cell-based, human; conditions: Breast
Text: as §1, §2

HCT-15 = assay: NCI-60 panel screen, growth inhibition; format: cell-based, human; conditions: Colon
Text: as §1, §2

LOX IMVI = assay: NCI-60 panel screen, growth inhibition; format: cell-based, human; conditions: Melanoma
Text: as §1, §2

SK-MEL-5 = assay: NCI-60 panel screen, growth inhibition; format: cell-based, human; conditions: Melanoma
Text: as §1, §2

PC-3 = assay: NCI-60 panel screen, growth inhibition; format: cell-based, human; conditions: Prostate
Text: as §1, §2

SR = assay: NCI-60 panel screen, growth inhibition; format: cell-based, human; conditions: Leukemia
Text: as §1, §2

SNB-75 = assay: NCI-60 panel screen, growth inhibition; format: cell-based, human; conditions: Central Nervous System
Text: as §1, §2

SN12C = assay: NCI-60 panel screen, growth inhibition; format: cell-based, human; conditions: Renal
Text: as §1, §2

NCI-H23 = assay: NCI-60 panel screen, growth inhibition; format: cell-based, human; conditions: NSCLC
Text: as §1, §2

CAKI-1 = assay: NCI-60 panel screen, growth inhibition; format: cell-based, human; conditions: Renal
Text: as §1, §2

OVCAR-5 = assay: NCI-60 panel screen, growth inhibition; format: cell-based, human; conditions: Ovarian
Text: as §1, §2

SF-295 = assay: NCI-60 panel screen, growth inhibition; format: cell-based, human; conditions: Central Nervous System
Text: as §1, §2

OVCAR-8 = assay: NCI-60 panel screen, growth inhibition; format: cell-based, human; conditions: Ovarian
Text: as §1, §2

IGROV1 = assay: NCI-60 panel screen, growth inhibition; format: cell-based, human; conditions: Ovarian
Text: as §1, §2

NCI-H460 = assay: NCI-60 panel screen, growth inhibition; format: cell-based, human; conditions: NSCLC
Text: as §1, §2

KM12 = assay: NCI-60 panel screen, growth inhibition; format: cell-based, human; conditions: Colon
Text: as §1, §2

UACC-257 = assay: NCI-60 panel screen, growth inhibition; format: cell-based, human; conditions: Melanoma
Text: as §1, §2

EKVX = assay: NCI-60 panel screen, growth inhibition; format: cell-based, human; conditions: NSCLC
Text: as §1, §2

COLO 205 = assay: NCI-60 panel screen, growth inhibition; format: cell-based, human; conditions: Colon
Text: as §1, §2

SF-268 = assay: NCI-60 panel screen, growth inhibition; format: cell-based, human; conditions: Central Nervous System
Text: as §1, §2

NCI/ADR-RES = assay: NCI-60 panel screen, growth inhibition; format: cell-based, human; conditions: Breast
Text: as §1, §2

SK-MEL-28 = assay: NCI-60 panel screen, growth inhibition; format: cell-based, human; conditions: Melanoma
Text: as §1, §2

MDA-MB-231/ATCC = assay: NCI-60 panel screen, growth inhibition; format: cell-based, human; conditions: Breast
Text: as §1, §2

K-562 = assay: NCI-60 panel screen, growth inhibition; format: cell-based, human; conditions: Leukemia
Text: as §1, §2

UACC-62 = assay: NCI-60 panel screen, growth inhibition; format: cell-based, human; conditions: Melanoma
Text: as §1, §2

HCT-116 = assay: NCI-60 panel screen, growth inhibition; format: cell-based, human; conditions: Colon
Text: as §1, §2

SF-539 = assay: NCI-60 panel screen, growth inhibition; format: cell-based, human; conditions: Central Nervous System
Text: as §1, §2

A549 = assay: NCI-60 panel screen, growth inhibition; format: cell-based, human; conditions: NSCLC
Text: as §1, §2

BT-549 = assay: NCI-60 panel screen, growth inhibition; format: cell-based, human; conditions: Breast
Text: as §1, §2

U251 = assay: NCI-60 panel screen, growth inhibition; format: cell-based, human; conditions: Central Nervous System
Text: as §1, §2

Gli1 = Gli1 knock-down by siRNA in A549 cells; format: cell-based, human; conditions: A549 cells transfected with siRNA

CC1=C2C[C@H]3[C@@H](CC=C4C[C@@H](O)CC[C@@]43C)[C@@H]2CC[C@]12O[C@@H]1C[C@H](C)CN[C@H]1[C@H]2C [Cyclopamine, cyclopamine]
Growth inhibitory activity in Gli1-transfected cells versus insertless expression vector (HOP62 [1]): less growth inhibitory activity

Cc1nn(-c2ccccc2)c(C)c1/C=N/N1CCN(Cc2ccccc2)CC1 [SANT1]
−log [GI50] (UO-31): 4.18 | −log [GI50] (MOLT-4): 4.57 | −log [GI50] (SNB-19): 4.00 | −log [GI50] (RPMI-8226): 4.70 | −log [GI50] (ACHN): 4.28 | −log [GI50] (DU-145): 4.02 | −log [GI50] (HT29): 4.37 | −log [GI50] (TK-10): 4.54 | −log [GI50] (NCI-H322M): 5.08 | −log [GI50] (MDA MB-435): 4.00 | −log [GI50] (HL-60): 4.54 | −log [GI50] (SK-MEL-2): 4.22 | −log [GI50] (NCI-H226): 4.56 | −log [GI50] (MCF7): 4.51 | −log [GI50] (786-0): 4.64 | −log [GI50] (HOP62 [2]): 4.79 | −log [GI50] (SW-620): 4.00 | −log [GI50] (NCI-H522): 4.11 | −log [GI50] (RXF 393): 4.00 | −log [GI50] (HS 578T): 4.00 | −log [GI50] (HCT-15): 4.52 | −log [GI50] (LOX IMVI): 4.36 | −log [GI50] (SK-MEL-5): 4.73 | −log [GI50] (PC-3): 4.60 | −log [GI50] (SR): 4.86 | −log [GI50] (SNB-75): 4.00 | −log [GI50] (SN12C): 4.00 | −log [GI50] (NCI-H23): 4.38 | −log [GI50] (CAKI-1): 4.00 | −log [GI50] (OVCAR-5): 4.00 | −log [GI50] (SF-295): 4.00 | −log [GI50] (OVCAR-8): 4.00 | −log [GI50] (IGROV1): 5.08 | −log [GI50] (NCI-H460): 4.47 | −log [GI50] (KM12): 4.50 | −log [GI50] (UACC-257): 4.20 | −log [GI50] (EKVX): 4.00 | −log [GI50] (COLO 205): 4.39 | −log [GI50] (SF-268): 4.42 | −log [GI50] (NCI/ADR-RES): 4.30 | −log [GI50] (SK-MEL-28): 4.09 | −log [GI50] (MDA-MB-231/ATCC): 4.65 | −log [GI50] (K-562): 4.51 | −log [GI50] (UACC-62): 4.47 | −log [GI50] (HCT-116): 4.55 | −log [GI50] (SF-539): 4.12 | −log [GI50] (A549): 4.00 | −log [GI50] (BT-549): 4.32 | −log [GI50] (U251): 4.17

SEQ ID NO:9: siRNA having the desired Gli1 knock-down activity (Sanchez, et al. (2004)) (AACUCCACAGGCAUACAGGAU; chemistry not given here)
Reduction of Gli1 levels (Gli1): approximately 90%
